Activity calls are given as the source filed them. No cut-off for these calls is given here.
Experiments:
SK-N-AS [1] = assay: Growth inhibition of human SK-N-AS cells at 1 uM after 24 hrs by MTT assay relative to control; type: functional; settings: read-out: GI
SK-N-AS [2] = assay: Growth inhibition of human SK-N-AS cells at 1 uM after 72 hrs by MTT assay relative to control; type: functional; settings: read-out: GI
IMR-32 [3] = assay: Growth inhibition of human IMR32 cells at 0.1 uM after 24 hrs by MTT assay relative to control; type: functional; settings: IMR-32, 24 h, read-out: GI
IMR-32 [4] = assay: Growth inhibition of human IMR32 cells at 0.1 uM after 72 hrs by MTT assay relative to control; type: functional; settings: IMR-32, 72 h, read-out: GI
IMR-32 [5] = assay: Growth inhibition of human IMR32 cells at 0.4 uM after 72 hrs by MTT assay relative to control; type: functional; settings: IMR-32, 72 h, read-out: GI
IMR-32 [6] = assay: Growth inhibition of human IMR32 cells at 0.01 uM after 72 hrs by MTT assay relative to control; type: functional; settings: IMR-32, 72 h, read-out: GI
SK-N-AS [7] = assay: Cell cycle arrest in human SK-N-AS cells at 4 uM up to 72 hrs by propidium iodide staining based flow cytometry; type: functional
SK-N-AS [8] = assay: Cell cycle arrest in human SK-N-AS cells assessed as increase in sub-G1 phase population at 4 uM after 24 hrs by propidium iodide staining based flow cytometry relative to control; type: functional
SK-N-AS [9] = assay: Induction of apoptosis in human SK-N-AS cells assessed as increase in caspase-3 activity at 4 uM after 24 hrs by CPP32 based colorimetric assay relative to control; type: functional
SK-N-AS [10] = assay: Induction of apoptosis in human SK-N-AS cells assessed as increase in caspase-3 activity at 4 uM by CPP32 based colorimetric assay; type: functional, cell-based; settings: TDE = time-dependent effect
SK-N-AS [11] = assay: Induction of apoptosis in human SK-N-AS cells assessed as decrease in Bcl-2 mRNA expression level at 4 uM after 24 hrs by real-time PCR method relative to control; type: functional; set-up: scale not given: the % may be the effect or the level left
IMR-32 [12] = assay: Induction of apoptosis in human IMR32 cells assessed as decrease in Bcl-2 mRNA expression level at 4 uM after 24 hrs by real-time PCR method relative to control; type: functional; set-up: scale not given: the % may be the effect or the level left
IMR-32 [13] = assay: Induction of apoptosis in human IMR32 cells assessed as decrease in Bcl-2 mRNA expression level at 4 uM after 8 hrs by real-time PCR method; type: functional, cell-based
IMR-32 [14] = assay: Reduction in N-myc mRNA expression level in human IMR32 cells at 4 uM after 24 hrs by real-time PCR method relative to control; type: functional; set-up: scale not given: the % may be the effect or the level left
IMR-32 [15] = assay: Reduction in N-myc mRNA expression level in human IMR32 cells at 4 uM after 8 hrs by real-time PCR method; type: functional, cell-based
SK-N-AS [16] = assay: Cell cycle arrest in human SK-N-AS cells assessed as increase in G0/G1 cell population at 0.4 uM after 24 hrs by propidium iodide staining based flow cytometry relative to control; type: functional
SK-N-AS [17] = assay: Cell cycle arrest in human SK-N-AS cells assessed as increase in G0/G1 cell population at 0.4 uM after 48 hrs by propidium iodide staining based flow cytometry relative to control; type: functional
SK-N-AS [18] = assay: Cell cycle arrest in human SK-N-AS cells assessed as increase in G0/G1 cell population at 0.4 uM after 72 hrs by propidium iodide staining based flow cytometry relative to control; type: functional
SK-N-AS [19] = assay: Cell cycle arrest in human SK-N-AS cells assessed as decrease in S phase population at 0.4 uM after 24 hrs by propidium iodide staining based flow cytometry relative to control; type: functional
SK-N-AS [20] = assay: Cell cycle arrest in human SK-N-AS cells assessed as decrease in S phase population at 0.4 uM after 48 hrs by propidium iodide staining based flow cytometry relative to control; type: functional
SK-N-AS [21] = assay: Cell cycle arrest in human SK-N-AS cells assessed as decrease in G2/M phase population at 0.4 uM after 48 hrs by propidium iodide staining based flow cytometry relative to control; type: functional
SK-N-AS [22] = assay: Cell cycle arrest in human SK-N-AS cells assessed as decrease in G2/M phase population at 0.4 uM after 72 hrs by propidium iodide staining based flow cytometry relative to control; type: functional
SK-N-AS [23] = assay: Cell cycle arrest in human SK-N-AS cells at 4 uM by propidium iodide staining based flow cytometry; type: functional; settings: TDE = time-dependent effect
SK-N-AS [24] = assay: Cell cycle arrest in human SK-N-AS cells assessed as increase in sub-G1 phase population at 0.4 uM after 24 hrs by propidium iodide staining based flow cytometry relative to control; type: functional
SK-N-AS [25] = assay: Induction of apoptosis in human SK-N-AS cells assessed as increase in caspase-3 activity at 0.4 uM after 8 hrs by CPP32 based colorimetric assay relative to control; type: functional
SK-N-AS [26] = assay: Induction of apoptosis in human SK-N-AS cells assessed as increase in caspase-3 activity at 4 uM after 8 hrs by CPP32 based colorimetric assay relative to control; type: functional
SK-N-AS [27] = assay: Induction of apoptosis in human SK-N-AS cells assessed as increase in caspase-3 activity at 0.4 uM after 24 hrs by CPP32 based colorimetric assay relative to control; type: functional
SK-N-AS [28] = assay: Induction of apoptosis in human SK-N-AS cells assessed as decrease in Bcl-2 mRNA expression level after 24 hrs by real-time PCR method; type: functional, cell-based
SK-N-AS [29] = assay: Induction of apoptosis in human SK-N-AS cells assessed as decrease in Bcl-2 mRNA expression level after 8 hrs by real-time PCR method; type: functional, cell-based
SK-N-AS [30] = assay: Induction of apoptosis in human SK-N-AS cells assessed as decrease in Bcl-2 mRNA expression level at 0.4 uM after 24 hrs by real-time PCR method relative to control; type: functional; set-up: scale not given: the % may be the effect or the level left
IMR-32 [31] = assay: Induction of apoptosis in human IMR32 cells assessed as decrease in Bcl-2 mRNA expression level at 0.4 to 4 uM after 24 hrs by real-time PCR method relative to control; type: functional; set-up: scale not given: the % may be the effect or the level left
IMR-32 [32] = assay: Induction of apoptosis in human IMR32 cells assessed as decrease in Bcl-2 mRNA expression level at 0.4 to 4 uM after 8 hrs by real-time PCR method; type: functional, cell-based
IMR-32 [33] = assay: Reduction in N-myc mRNA expression level in human IMR32 cells at 0.4 to 4 uM after 8 hrs by real-time PCR method; type: functional, cell-based
SK-N-AS [34] = assay: Antitumor activity against human SK-N-AS cells xenografted in specific-pathogen-free KSN athymic nude mouse assessed as tumor growth inhibition at 12.5 mg/kg/day administered ip for 2 weeks measured on day 21 relative to control; type: functional; settings: read-out: TGI
SK-N-AS [35] = assay: Antitumor activity against human SK-N-AS cells xenografted in specific-pathogen-free KSN athymic nude mouse assessed as tumor growth inhibition at 50 mg/kg/day administered ip for 2 weeks measured on day 21 relative to control; type: functional; settings: read-out: TGI
SK-N-AS [36] = assay: Antitumor activity against human SK-N-AS cells xenografted in specific-pathogen-free KSN athymic nude mouse assessed as decrease in tumor weight at 12.5 mg/kg/day administered ip for 2 weeks measured on day 21 relative to control; type: functional; set-up: scale not given: the % may be the effect or the level left
SK-N-AS [37] = assay: Antitumor activity against human SK-N-AS cells xenografted in specific-pathogen-free KSN athymic nude mouse assessed as decrease in tumor weight at 50 mg/kg/day administered ip for 2 weeks measured on day 21 relative to control; type: functional; set-up: scale not given: the % may be the effect or the level left
Mus musculus = assay: Toxicity in specific-pathogen-free KSN athymic nude mouse xenografted with human SK-N-AS cells assessed as change in body weight at 12.5 to 50 mg/kg/day administered ip for 2 weeks measured on day 21; type: organism-based; settings: in vivo, 336 h
SK-N-AS [38] = assay: Cell cycle arrest in human SK-N-AS cells assessed as accumulation at sub-G1 phase at 0.4 uM after 8 hrs by propidium iodide staining based flow cytometry (reference value: 1.13 +/- 0.13%); type: functional
SK-N-AS [39] = assay: Cell cycle arrest in human SK-N-AS cells assessed as accumulation at sub-G1 phase at 0.4 uM after 48 hrs by propidium iodide staining based flow cytometry (reference value: 1.13 +/- 0.13%); type: functional
SK-N-AS [40] = assay: Cell cycle arrest in human SK-N-AS cells assessed as accumulation at sub-G1 phase at 0.4 uM after 72 hrs by propidium iodide staining based flow cytometry (reference value: 1.13 +/- 0.13%); type: functional
SK-N-AS [41] = assay: Cell cycle arrest in human SK-N-AS cells assessed as accumulation at G0/G1 phase at 0.4 uM after 8 hrs by propidium iodide staining based flow cytometry (reference value: 46.14 +/- 3.63%); type: functional
SK-N-AS [42] = assay: Cell cycle arrest in human SK-N-AS cells assessed as accumulation at S phase at 0.4 uM after 8 hrs by propidium iodide staining based flow cytometry (reference value: 28.55 +/- 0.74%); type: functional
SK-N-AS [43] = assay: Cell cycle arrest in human SK-N-AS cells assessed as accumulation at S phase at 0.4 uM after 72 hrs by propidium iodide staining based flow cytometry (reference value: 28.55 +/- 0.74%); type: functional
SK-N-AS [44] = assay: Cell cycle arrest in human SK-N-AS cells assessed as accumulation at G2/M phase at 0.4 uM after 8 hrs by propidium iodide staining based flow cytometry (reference value: 25.31 +/- 2.89%); type: functional
SK-N-AS [45] = assay: Cell cycle arrest in human SK-N-AS cells assessed as accumulation at G2/M phase at 0.4 uM after 24 hrs by propidium iodide staining based flow cytometry (reference value: 25.31 +/- 2.89%); type: functional

CC1=C(/C=C/C(C)=C/C=C/C(C)=C/C(=O)Nc2ccc(O)cc2)C(C)(C)CCC1 [FENRETINIDE]
inhibition of growth at 1 µM (SK-N-AS [1]): 2% | inhibition of growth at 1 µM (SK-N-AS [2]): 10% | inhibition of growth at 0.1 µM (IMR-32 [3]): 4% | inhibition of growth at 0.1 µM (IMR-32 [4]): 17% | inhibition of growth at 0.4 µM (IMR-32 [5]): 27% | inhibition of growth at 0.01 µM (IMR-32 [6]): 15% | Activity (SK-N-AS [7]): Active | fold change (FC) (SK-N-AS [8]): 5 | fold change (FC) (SK-N-AS [9]): 4.7 | Activity (SK-N-AS [10]): Tde | Activity (SK-N-AS [11]): 62% | Activity (IMR-32 [12]): 69% | Activity (IMR-32 [13]): inactive | Activity (IMR-32 [14]): 27% | Activity (IMR-32 [15]): inactive

CCCCCCCCCCCCNc1ccc(O)cc1
inhibition of growth at 1 µM (SK-N-AS [1]): 82% | inhibition of growth at 1 µM (SK-N-AS [2]): 83 to 90% | inhibition of growth at 0.1 µM (IMR-32 [3]): 78% | inhibition of growth at 0.1 µM (IMR-32 [4]): 92% | inhibition of growth at 0.4 µM (IMR-32 [5]): 100% | inhibition of growth at 0.01 µM (IMR-32 [6]): 15% | fold change (FC) (SK-N-AS [16]): 1.18 | fold change (FC) (SK-N-AS [17]): 1.18 | fold change (FC) (SK-N-AS [18]): 1.17 | fold change (FC) (SK-N-AS [19]): 0.73 | fold change (FC) (SK-N-AS [20]): 0.89 | fold change (FC) (SK-N-AS [21]): 0.79 | fold change (FC) (SK-N-AS [22]): 0.68 | Activity (SK-N-AS [23]): Tde | fold change (FC) (SK-N-AS [24]): 3 | fold change (FC) (SK-N-AS [8]): 23 | fold change (FC) (SK-N-AS [25]): 1.6 | fold change (FC) (SK-N-AS [26]): 3.6 | fold change (FC) (SK-N-AS [27]): 5.3 | fold change (FC) (SK-N-AS [9]): 12 | Activity (SK-N-AS [10]): Tde | Activity (SK-N-AS [28]): Dose-dependent effect | Activity (SK-N-AS [29]): inactive | Activity (SK-N-AS [30]): 35% | Activity (SK-N-AS [11]): 19% | Activity (IMR-32 [31]): 63% | Activity (IMR-32 [32]): inactive | Activity (IMR-32 [14]): 52% | Activity (IMR-32 [33]): inactive | inhibition in vivo at 12.5 mg/kg/day (SK-N-AS [34]): 40% | inhibition in vivo at 50 mg/kg/day (SK-N-AS [35]): 58% | Activity (SK-N-AS [36]): 33% | Activity (SK-N-AS [37]): 37% | Activity (Mus musculus): Non-Toxic | Activity (SK-N-AS [38]): 1.19% | Activity (SK-N-AS [39]): 5.57% | Activity (SK-N-AS [40]): 9.78% | Activity (SK-N-AS [41]): 47.04% | Activity (SK-N-AS [42]): 22.4% | Activity (SK-N-AS [43]): 28.8% | Activity (SK-N-AS [44]): 30.56% | Activity (SK-N-AS [45]): 24.84%

CCCCCCCCCCNc1ccc(O)cc1
inhibition of growth at 1 µM (SK-N-AS [1]): 44% | inhibition of growth at 1 µM (SK-N-AS [2]): 60%
